Laboratory results: patent US20180092908A1, “SMALL MOLECULE OXIDIZERS OF PDI AND THEIR USE” (THE TRUSTEES OF COLUMBIA UNIVERSITY IN THE CITY OF NEW YORK, priority 2015, published 2018)
Values after ≈ are worked out from the molar mass of the structure shown. Where two headings read alike, the source gives them in different places.

Experiments:
[1] = target: T1, recombinant catalytic a domain of human PDI A1 (PDIa) (Homo sapiens, UniProt P07237); assay: Insulin aggregation assay (PDIa reductase activity); format: biochemical
T1 construct: made in house; host or cells: Escherichia coli BL21-Gold (DE3)
T1 sequence (P07237 with tags, fused parts or gaps): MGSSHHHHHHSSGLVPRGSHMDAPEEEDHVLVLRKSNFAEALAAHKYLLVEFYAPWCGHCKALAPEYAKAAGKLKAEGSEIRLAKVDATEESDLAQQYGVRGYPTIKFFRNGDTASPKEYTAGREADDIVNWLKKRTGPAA

[2] = target: T2, human catalytic PDI A1 a domain (PDIa) (Homo sapiens, UniProt P07237); assay: Isothermal titration calorimetry (ITC) binding to PDIa
T2 construct: made in house; host or cells: Escherichia coli BL21-Gold (DE3)
T2 sequence (P07237 with tags, fused parts or gaps): as above

[3] = system: striatal medium spiny neurons (MSNs); assay: HD brain slice assay (mHTT-Q73 transfected corticostriatal explants); format: cell-based; settings: rat corticostriatal brain slice explants, YFP + mHTT-Q73, 4 days
Description: Brain slice explants were prepared and transfected as previously described (Reinhart et al., 2011). Briefly, brains were taken from postnatal day 10 CD Sprague-Dawley rat pups and cut into 250 μm coronal slices on a vibratome (Vibratome Co., St. Louis, Mo.). Brain slices containing striatum and cortex were then placed in individual wells of 12-well plates atop culture medium set in 0.5% agarose and maintained at 32° C. under 5% CO2. Co-transfection with YFP and Htt exon-1 containing a 73 polyglutamine repeat was done using a biolistic device (Bio-Rad Helios Gene Gun, Hercules, Calif.). Positive controls were transfected with YFP only or treated with a combination of 50 μM KW-6002 (istradefylline) and 50 μM SP600125. Negative control brain slices were treated with 0.1% DMSO carrier only. Striatal medium spiny neurons (MSNs) expressing YFP were visualized under fluorescence microscopy and identified based on their location within brain slices and their characteristic morphology.
Having elucidated aspects of the biophysical mechanism of action of LOC14 binding to PDI, the next exploration concerned whether LOC14 would be a good candidate for in vivo studies. […] In the absence of LOC14, very few healthy MSNs remained, as assessed by the lack of normal sized and shaped cell bodies, absence of long primary dendrites, and lack of continuous expression of YFP throughout the cell (FIG. 10).

[4] = Mouse microsome stability assay; format: in vitro ADME; settings: for half-life at 0.5 μM: mouse, liver microsomes, pH 7.4, mouse liver microsomes
Description: At 0, 5, 15, 30 and 45 minute intervals, an aliquot was taken and quenched with acetonitrile (ACN) containing internal standard. No-cofactor controls at 45 minutes were prepared. Following completion of the experimentation, the samples were analyzed by LC-MS/MS. […] C=initial×exp (−k×t). Intrinsic clearance (CLint) was calculated as liver clearance from the half-life using the following equation: CLint=k×(ml incubation/0.5 mg protein)×(52.5 mg protein/g liver). Results were reported as peak area ratios of analyte to internal standard. The intrinsic clearance (CLint) was determined from the first order elimination constant by non-linear regression. The microsome stability assay, plasma stability assay, and plasma protein binding assay were each performed by Alliance Pharma, Inc. (Malvern, Pa.).

[5] = Mouse plasma protein binding assay; format: in vitro ADME; settings: mouse; plasma, compound 2000 ng/mL, mean±SD (n=3)
Description: (§1) A test compound at the concentration of 2000 ng/mL in plasma was added into the sample chamber, and a dialysis buffer phosphate-buffered saline (PBS) was added into the buffer chamber, covering the unit with sealing tape and incubating for 4 hours at 37° C. at approximately 100 rpm on an orbital shaker. The incubation samples were taken from both plasma and buffer chamber at the end of the incubation, and then samples were analyzed by LC-MS/MS. Protein binding and free fraction percentage were determined using peak area ratio of analyte to internal standard. Fraction bound percent was calculated as: % Bound=100*(Cplasma−CPBS)/Cplasma. The fraction recovered percent was calculated as: % Recovery=(VPBS*CPBS+Vplasma*Cplasma)/(Vplasma*Cspike) where VPBS is Volume of PBS, Vplasma is Volume of Plasma, CPBS is Drug concentration in PBS (Analyte/IS peak area ratio), Cplasma is Drug concentration in plasma (Analyte/IS peak area ratio), Cspike is Drug concentration in spiked plasma (Analyte/IS peak area ratio).

[6] = system: plasma proteins; assay: Mouse plasma protein binding assay; format: in vitro ADME; settings: mouse plasma
Description: as §1

[7] = target: T1, recombinant catalytic a domain of human PDI A1 (PDIa); assay: Insulin aggregation assay (PDIa reductase activity); format: biochemical; remark: listed apart in the source
[8] = physchem; settings: organic solvent or mixture
[9] = mouse liver microsomes, compound 0.5 μM

For `O=C(C1CC1)N1CCN(Cn2sc3ccccc3c2=O)CC1` [LOC14, 2-((4-(cyclopropanecarbonyl)piperazin-1-yl)methyl)benzo[d]isothiazol-3(2H)-one], the “Insulin Assay (either active or inactive)” value ([1]; Table 5) was “Active”, the “PDI's enzymatic activity after dilution of pre-formed complex” value ([1]; compound 750 μM + PDIa 500 μM, diluted 100-fold) was “complete recovery” and the “binding affinity to PDIa with 16F16 pre-treatment” value ([2]; 40 μM PDIa pre-treated overnight with 200 μM 16F16) was “reduced”. For the same molecule, the Kd ([2]; PDIa, Table 5, read-out: ITC Assay KD) was 113 nM, the Kd ([2]; reduced PDIa 40 μM, compound 400 μM, 25° C., read-out: dissociation constant (Kd)) was 61.7 ± 5.6 nM and the “rescue of MSNs from mutant huntingtin-induced neurodegeneration” value [3] was “rescued MSNs in a concentration-dependent manner”. For the same molecule, the intrinsic clearance value ([4]; mouse liver microsomes) was “less than 0.5 ml/min/g”, the “Elimination rate constant (k)” value [4, 9] was 0.0016 and the “Intrinsic Clearance (CLint), mL/min/g liver” value [4, 9] was 0.17 mL/min/g liver. The half-life at 0.5 μM ([4]; compound 0.5 μM, read-out: Half-life (t1/2)) was 7.31 h, the half-life at 0.5 μM ([4]; read-out: half-life) was > 1.5 h and the recovery at 4 h, 2000 ng/mL [5] was 113.8 ± 0.76%. For the same molecule, the “binding to the plasma proteins” value [6] was “low binding”, the “inhibition of PDIa enzymatic activity” value ([7]; compound 75 μM, PDIa 5 μM) was “almost completely inhibit” and the “inhibition of PDI's reduction of insulin without dilution” value ([7]; compound 750 μM) was “able to inhibit”. It also gave a solubility ([8]; DMSO) of 40 mg/mL (≈ 126 mM), a solubility ([8]; EtOH) of 20 mg/mL (≈ 63 mM) and a solubility ([8]; MeOH) of 40 mg/mL (≈ 126 mM). The solubility ([8]; NMP) was 80 mg/mL (≈ 252 mM).
